# Laboratory results from PubChem BioAssay (NCI).
#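 Protocol summary: plate cells (96-well), add compound at 5 concentrations, incubate 48 h, interpolate endpoints linearly. GI50 is the concentration that inhibits growth by half. TGI is the concentration that stops growth completely.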
# Legend:
# Test in all cases: inhibition of tumour cell growth, NCI panel, 48 h
# SF-295 CNS = tested on: SF-295 CNS
# NCI-H23 lung = tested on: NCI-H23 lung
# HCT-116 colon = tested on: HCT-116 colon
# A549 NSCLC = tested on: A549 NSCLC
# OVCAR-4 ovarian = tested on: OVCAR-4 ovarian
# BT-549 breast = tested on: BT-549 breast
# K-562 leukemia = tested on: K-562 leukemia
# MDA-MB-231 breast = tested on: MDA-MB-231 breast
# NCI-H460 lung = tested on: NCI-H460 lung
# SN12C renal = tested on: SN12C renal
# UO-31 renal = tested on: UO-31 renal
# TK-10 renal = tested on: TK-10 renal
# MCF7 breast = tested on: MCF7 breast
# SW-620 colon = tested on: SW-620 colon
# SK-MEL-2 melanoma = tested on: SK-MEL-2 melanoma
# HCT-15 colon = tested on: HCT-15 colon
# SF-539 CNS = tested on: SF-539 CNS
# KM12 colon = tested on: KM12 colon
# HL-60(TB) leukemia = tested on: HL-60(TB) leukemia
# COLO 205 colon = tested on: COLO 205 colon
# IGROV1 ovarian = tested on: IGROV1 ovarian
# MDA-MB-435 = tested on: MDA-MB-435
# SNB-19 CNS = tested on: SNB-19 CNS
# T-47D breast = tested on: T-47D breast
# OVCAR-3 ovarian = tested on: OVCAR-3 ovarian
# SK-MEL-28 melanoma = tested on: SK-MEL-28 melanoma
# DU-145 prostate = tested on: DU-145 prostate
# PC-3 prostate = tested on: PC-3 prostate
# NCI-H522 lung = tested on: NCI-H522 lung
# HCC-2998 colon = tested on: HCC-2998 colon
# HS 578T breast = tested on: HS 578T breast
# 786-0 renal = tested on: 786-0 renal
# RPMI-8226 leukemia = tested on: RPMI-8226 leukemia
# UACC-257 melanoma = tested on: UACC-257 melanoma
# HOP-92 NSCLC = tested on: HOP-92 NSCLC
# U251 CNS = tested on: U251 CNS
# HOP-62 NSCLC = tested on: HOP-62 NSCLC
# SK-MEL-5 melanoma = tested on: SK-MEL-5 melanoma
# LOX IMVI melanoma = tested on: LOX IMVI melanoma
# EKVX NSCLC = tested on: EKVX NSCLC
# OVCAR-5 ovarian = tested on: OVCAR-5 ovarian
# CAKI-1 renal = tested on: CAKI-1 renal
# M14 melanoma = tested on: M14 melanoma
# SF-268 CNS = tested on: SF-268 CNS
# ACHN renal = tested on: ACHN renal
# SR leukemia = tested on: SR leukemia
# OVCAR-8 ovarian = tested on: OVCAR-8 ovarian
# NCI/ADR-RES ovarian = tested on: NCI/ADR-RES ovarian
# RXF 393 renal = tested on: RXF 393 renal
# UACC-62 melanoma = tested on: UACC-62 melanoma
smiles,measurement,setting,value
CCC(CC)c1nc(Nc2cccc(OC)c2)c2ccccc2n1,GI50,SF-295 CNS,6.55 µM
same,TGI,SF-295 CNS,12.9 µM
same,GI50,NCI-H23 lung,8.27 µM
same,TGI,NCI-H23 lung,15.1 µM
same,GI50,HCT-116 colon,8.31 µM
same,TGI,HCT-116 colon,15.1 µM
same,GI50,A549 NSCLC,7.11 µM
same,TGI,A549 NSCLC,13.6 µM
same,GI50,OVCAR-4 ovarian,6.95 µM
same,TGI,OVCAR-4 ovarian,13.6 µM
same,GI50,BT-549 breast,7.19 µM
same,TGI,BT-549 breast,13.7 µM
same,GI50,K-562 leukemia,4.3 µM
same,TGI,K-562 leukemia,> 50 µM
same,GI50,MDA-MB-231 breast,6.57 µM
same,TGI,MDA-MB-231 breast,12.9 µM
same,GI50,NCI-H460 lung,12.9 µM
same,TGI,NCI-H460 lung,38.4 µM
same,GI50,SN12C renal,7.35 µM
same,TGI,SN12C renal,13.9 µM
same,GI50,UO-31 renal,6.95 µM
same,TGI,UO-31 renal,13.4 µM
same,GI50,TK-10 renal,10.7 µM
same,TGI,TK-10 renal,17.9 µM
same,GI50,MCF7 breast,10.6 µM
same,TGI,MCF7 breast,> 50 µM
same,GI50,SW-620 colon,7.47 µM
same,TGI,SW-620 colon,14.1 µM
same,GI50,SK-MEL-2 melanoma,7.11 µM
same,TGI,SK-MEL-2 melanoma,15.2 µM
same,GI50,HCT-15 colon,7.45 µM
same,TGI,HCT-15 colon,14.1 µM
same,GI50,SF-539 CNS,8.29 µM
same,TGI,SF-539 CNS,15.1 µM
same,GI50,KM12 colon,6.11 µM
same,TGI,KM12 colon,12.3 µM
same,GI50,HL-60(TB) leukemia,12 µM
same,TGI,HL-60(TB) leukemia,> 50 µM
same,GI50,COLO 205 colon,11 µM
same,TGI,COLO 205 colon,18.3 µM
same,GI50,IGROV1 ovarian,10.2 µM
same,TGI,IGROV1 ovarian,19.2 µM
same,GI50,MDA-MB-435,6.92 µM
same,TGI,MDA-MB-435,13.4 µM
same,GI50,SNB-19 CNS,6.86 µM
same,TGI,SNB-19 CNS,13.3 µM
same,GI50,T-47D breast,5 nM
same,TGI,T-47D breast,234 nM
same,GI50,OVCAR-3 ovarian,5.9 µM
same,TGI,OVCAR-3 ovarian,12 µM
same,GI50,SK-MEL-28 melanoma,6.72 µM
same,TGI,SK-MEL-28 melanoma,13.1 µM
same,GI50,DU-145 prostate,6.48 µM
same,TGI,DU-145 prostate,12.8 µM
same,GI50,PC-3 prostate,6.86 µM
same,TGI,PC-3 prostate,13.3 µM
same,GI50,NCI-H522 lung,7.51 µM
same,TGI,NCI-H522 lung,15.3 µM
same,GI50,HCC-2998 colon,7.68 µM
same,TGI,HCC-2998 colon,14.3 µM
same,GI50,HS 578T breast,7.71 µM
same,TGI,HS 578T breast,15.4 µM
same,GI50,786-0 renal,11 µM
same,TGI,786-0 renal,18.2 µM
same,GI50,RPMI-8226 leukemia,5.41 µM
same,TGI,RPMI-8226 leukemia,11.3 µM
same,GI50,UACC-257 melanoma,8.06 µM
same,TGI,UACC-257 melanoma,14.8 µM
same,GI50,HOP-92 NSCLC,2860 nM
same,TGI,HOP-92 NSCLC,9.98 µM
same,GI50,U251 CNS,7.98 µM
same,TGI,U251 CNS,14.7 µM
same,GI50,HOP-62 NSCLC,8.06 µM
same,TGI,HOP-62 NSCLC,14.8 µM
same,GI50,SK-MEL-5 melanoma,6.07 µM
same,TGI,SK-MEL-5 melanoma,12.3 µM
same,GI50,LOX IMVI melanoma,6.43 µM
same,TGI,LOX IMVI melanoma,12.7 µM
same,GI50,EKVX NSCLC,8.05 µM
same,TGI,EKVX NSCLC,14.8 µM
same,GI50,OVCAR-5 ovarian,9.68 µM
same,TGI,OVCAR-5 ovarian,16.7 µM
same,GI50,CAKI-1 renal,5.9 µM
same,TGI,CAKI-1 renal,12 µM
same,GI50,M14 melanoma,11.3 µM
same,TGI,M14 melanoma,18.5 µM
same,GI50,SF-268 CNS,11.5 µM
same,TGI,SF-268 CNS,29.5 µM
same,GI50,ACHN renal,7.71 µM
same,TGI,ACHN renal,14.4 µM
same,GI50,SR leukemia,9.81 µM
same,TGI,SR leukemia,24.2 µM
same,GI50,OVCAR-8 ovarian,8.85 µM
same,TGI,OVCAR-8 ovarian,17.9 µM
same,GI50,NCI/ADR-RES ovarian,10.3 µM
same,TGI,NCI/ADR-RES ovarian,17.4 µM
same,GI50,RXF 393 renal,7.29 µM
same,TGI,RXF 393 renal,14.7 µM
same,GI50,UACC-62 melanoma,7.28 µM
same,TGI,UACC-62 melanoma,13.8 µM
